Results from patent publication EP1019392B1, “TRICYCLIC AMIDES USEFUL FOR INHIBITION OF G-PROTEIN FUNCTION AND FOR TREATMENT OF PROLIFERATIVE DISEASES” (SCHERING CORPORATION, priority 1995, dated 1997).
Where two headings read alike, the source gives them in different places.

Tests used:
[1] = test system: T24-BAG4 human bladder carcinoma cells expressing an activated H-ras gene; assay: Cell Mat Assay, T24 tumor cells; format: cell-based; conditions: read-out: Tumor (T-24) IC50
[2] = test system: Ras-CVLS processing in COS monkey kidney cells; assay: COS cell assay: inhibition of Ras-CVLS processing (Western blot); format: cell-based
Source text: • 1. In vitro enzyme assays: Inhibition of farnesyl protein transferase and geranylgeranyl protein transferase. Both farnesyl protein transferase (FPT) and geranylgeranyl protein transferase (GGPT) I were partially purified from rat brain by ammonium sulfate fractionation followed by Q-Sepharose (Pharmacia, Inc.) anion exchange chromatography essentially as described by Yokoyama et al (Yokoyama, K., et al., (1991), A protein geranylgeranyltransferase from bovine brain: Implications for protein prenylation specificity, Proc. Natl. Acad. Sci USA 88: 5302-5306, the disclosure of which is incorporated herein by reference thereto). Human farnesyl protein transferase was also expressed in E. coli, using cDNA clones encoding both the a and b subunits. The methods used were similar to those published (Omer, C. et al., (1993), Characterization of recombinant human farnesyl protein transferase: Cloning, expression, farnesyl diphosphate binding, and functional homology with yeast prenyl-protein transferases, Biochemistry 32:5167-5176). Human farnesyl protein transferase was partially-purified from the soluble protein fraction of E. coli as described above. […] Two forms of val^12-Ha-Ras protein were prepared as substrates for these enzymes, differing in their carboxy terminal sequence. One form terminated in cysteine-valine-leucine-serine (Ras-CVLS) the other in cystein-valine-leucine-leucine (Ras-CVLL). Ras-CVLS is a substrate for the farnesyl protein transferase while Ras-CVLL is a substrate for geranylgeranyl protein transferase I. The cDNAs encoding these proteins were constructed so that the proteins contain an amino-terminal extension of 6 histidine residues. Both proteins were expressed in Escherichia coli and purified using metal chelate affinity chromatography. The radiolabelled isoprenyl pyrophosphate substrates, [^3H]farnesyl pyrophosphate and [^3H]geranylgeranyl pyrophosphate, were purchased from DuPont/New England Nuclear. Several methods for measuring farnesyl protein transferase activity have been described (Reiss et al 1990, Cell 62: 81; Schaber et al 1990, J. Biol. Chem. 265: 14701; Manne et al 1990, PNAS 87: 7541; and Barbacid & Manne 1993, U.S. Patent No. 5,185,248). […] The reaction was allowed to proceed for 30 minutes at room temperature and then stopped with 0.5 ml of 4% sodium dodecyl sulfate (SDS) followed by 0.5 ml of cold 30% TCA. Samples were allowed to sit on ice for 45 minutes and precipitated Ras protein was then collected on GF/C filter paper mats using a Brandel cell harvester. Filter mats were washed once with 6% TCA, 2% SDS and radioactivity was measured in a Wallac 1204 Betaplate BS liquid scintillation counter. Percent inhibition was calculated relative to the DMSO vehicle control. The geranylgeranyl protein transferase I assay was essentially identical to the farnesyl protein transferase assay described above, with two exceptions: [^3H]geranylgeranylpyrophosphate replaced farnesyl pyrophosphate as the isoprenoid donor and Ras-CVLL was the protein acceptor. […] Cell-Based Assay: Transient expression of val^12-Ha-Ras-CVLS and val^12-Ha-Ras-CVLL in COS monkey kidney cells: Effect of farnesyl protein transferase inhibitors on Ras processing and on disordered cell growth induced by transforming Ras. COS monkey kidney cells were transfected by electroporation with the plasmid pSV-SPORT (Gibco/BRL) containing a cDNA insert encoding either Ras-CVLS or Ras-CVLL, leading to transient overexpression of a Ras substrate for either farnesyl protein transferase or geranylgeranyl protein transferase I, respectively (see above). Following electroporation, cells were plated into 6-well tissue culture dishes containing 1.5 ml of Dulbecco's-modified Eagle's media (GIBCO, Inc.) supplemented with 10% fetal calf serum and the appropriate farnesyl protein transferase inhibitors. After 24 hours, media was removed and fresh media containing the appropriate drugs was re-added.

[3] = test system: SW620-BAG human colon carcinoma cells expressing an activated K-ras gene; assay: Cell Mat Assay, SW620 tumor cells; format: cell-based
[4] = test system: DLD-1-BAG human colon carcinoma cells expressing as activated K-ras gene; assay: Cell Mat Assay, DLD-1 tumor cells; format: cell-based
[5] = test system: Normal human HEPM fibroblasts; assay: Cell Mat Assay, normal cell mat; format: cell-based; conditions: normal monolayer
[6] = molecular target: T1, farnesyl protein transferase (FPT) (Rattus norvegicus, UniProt Q02293+Q04631); assay: In vitro enzyme assay: inhibition of farnesyl protein transferase (transfer of [3H]farnesyl to Ras-CVLS); format: biochemical; conditions: partially purified rat brain FPT, Ras-CVLS
T1 construct: were partially purified from rat brain by ammonium sulfate fractionation followed by Q-Sepharose; from tissue; host or cells: rat brain
Method: • 1. In vitro enzyme assays: Inhibition of farnesyl protein transferase and geranylgeranyl protein transferase. […] Human farnesyl protein transferase was also expressed in E. coli, using cDNA clones encoding both the a and b subunits. […] Human farnesyl protein transferase was partially-purified from the soluble protein fraction of E. coli as described above. […] Two forms of val^12-Ha-Ras protein were prepared as substrates for these enzymes, differing in their carboxy terminal sequence. One form terminated in cysteine-valine-leucine-serine (Ras-CVLS) the other in cystein-valine-leucine-leucine (Ras-CVLL). Ras-CVLS is a substrate for the farnesyl protein transferase while Ras-CVLL is a substrate for geranylgeranyl protein transferase I. The cDNAs encoding these proteins were constructed so that the proteins contain an amino-terminal extension of 6 histidine residues. Both proteins were expressed in Escherichia coli and purified using metal chelate affinity chromatography. The radiolabelled isoprenyl pyrophosphate substrates, [^3H]farnesyl pyrophosphate and [^3H]geranylgeranyl pyrophosphate, were purchased from DuPont/New England Nuclear. […] The reaction was allowed to proceed for 30 minutes at room temperature and then stopped with 0.5 ml of 4% sodium dodecyl sulfate (SDS) followed by 0.5 ml of cold 30% TCA. Samples were allowed to sit on ice for 45 minutes and precipitated Ras protein was then collected on GF/C filter paper mats using a Brandel cell harvester. […] Percent inhibition was calculated relative to the DMSO vehicle control. The geranylgeranyl protein transferase I assay was essentially identical to the farnesyl protein transferase assay described above, with two exceptions: [^3H]geranylgeranylpyrophosphate replaced farnesyl pyrophosphate as the isoprenoid donor and Ras-CVLL was the protein acceptor. […] Cell-Based Assay: Transient expression of val^12-Ha-Ras-CVLS and val^12-Ha-Ras-CVLL in COS monkey kidney cells: Effect of farnesyl protein transferase inhibitors on Ras processing and on disordered cell growth induced by transforming Ras. COS monkey kidney cells were transfected by electroporation with the plasmid pSV-SPORT (Gibco/BRL) containing a cDNA insert encoding either Ras-CVLS or Ras-CVLL, leading to transient overexpression of a Ras substrate for either farnesyl protein transferase or geranylgeranyl protein transferase I, respectively (see above). Following electroporation, cells were plated into 6-well tissue culture dishes containing 1.5 ml of Dulbecco's-modified Eagle's media (GIBCO, Inc.) supplemented with 10% fetal calf serum and the appropriate farnesyl protein transferase inhibitors. After 24 hours, media was removed and fresh media containing the appropriate drugs was re-added. 48 hours after electroporation cells were examined under the microscope to monitor disordered cell growth induced by transforming Ras. Cells expressing transforming Ras become more rounded and refractile and overgrow the monolayer, reminiscent of the transformed phenotype. Cells were then photographed, washed twice with 1 ml of cold phosphate-buffered saline (PBS) and removed from the dish by scraping with a rubber policeman into 1 ml of a buffer containing 25 mM Tris, pH 8.0; 1 mM ethylenediamine tetraacetic acid; 1 mM phenylmethylsulfonyl fluoride; […] leupeptin; and 0.1 mM pepstatin. Cells were lysed by homogenization and cell debris was removed by centrifugation at 2000 x g for 10 min. Cellular protein was precipitated by addition of ice-cold trichloroacetic acid and redissolved in […] of SDS-electrophoresis sample buffer. […] Proteins resolved on the gels were electroblotted onto nitrocellulose membranes for immunodetection. […] After washing, membranes were incubated for one hour at room temperature with a 1:5000 dilution of secondary antibody, rabbit anti-rat IgG conjugated to horseradish peroxidase, in PBS containing 1% fetal calf serum.

[7] = Homo sapiens, SW-620, Mat assay

O=C(Cc1cc[n+]([O-])cc1)N1CCC(C2c3ncc(Br)cc3CCc3cc(Cl)cc(Br)c32)CC1 (single isomer, unassigned) [Example 9A]
IC50 ([1]; Homo sapiens): < 1600 nM | IC50 ([2]; Primates, COS): 850 nM

O=C(Cc1cc[n+]([O-])cc1)N1CCN(C2c3ncc(Br)cc3CCc3cccc(Cl)c32)CC1 (single isomer, unassigned) [Example 20]
IC50 ([2]; Primates, COS): ~30 nM

NC(=O)N1CCC(CC(=O)N2CCC(C3c4ccc(Cl)c(Br)c4CCc4cc(Br)cnc43)CC2)CC1 (single isomer, unassigned) [Example 13A]
IC50 ([3]; Mat assay): 6250 nM | IC50 [2]: > 1000 nM | IC50 ([4]; Homo sapiens, DLD-1, Mat assay): 6250 nM

NC(=O)N1CCC(CC(=O)N2CCC(=C3c4ncc(Br)cc4CCc4cc(Cl)cc(Br)c43)CC2)CC1 (racemic) [Example 8]
IC50 ([5]; Homo sapiens, Fibroblast): > 25000 nM | IC50 [3, 7]: 3100 nM | IC50 ([1]; Homo sapiens): < 1600 nM | IC50 ([2]; Primates, COS): < 250 nM | IC50 ([4]; Homo sapiens, DLD-1, Mat assay): 3100 nM

NC(=O)N1CCC(CC(=O)N2CCC(C3c4ccc(Cl)c(Br)c4CCc4cc(Br)cnc43)CC2)CC1 (single isomer, unassigned) [Example 13B]
IC50 [3, 7]: > 3100 nM | IC50 ([1]; Homo sapiens): < 1600 nM

O=C(Cc1cc[n+]([O-])cc1)N1CCC(C2c3ccc(Cl)c(Br)c3CCc3cc(Br)cnc32)CC1 (stereo not drawn) [Example 14B]
IC50 ([6]; FPT IC50, Table 1): 5 nM

O=C(Cc1cc[n+]([O-])cc1)N1CCN(C2c3ncc(Br)cc3CCc3cc(Cl)cc(F)c32)CC1 (stereo not drawn) [Example 21]
IC50 ([6]; Table 1, read-out: FPT IC50): 8.4 nM | IC50 ([2]; Primates, COS): 420 nM

NC(=O)N1CCC(CC(=O)N2CCC(C3c4ncc(Br)cc4CCc4cc(Cl)cc(Br)c43)CC2)CC1 (stereo not drawn) [Example 10B]
IC50 [5]: > 25000 nM | IC50 ([3]; Mat assay): 1600 nM | IC50 [1]: < 1600 nM | IC50 ([4]; Mat assay): 1600 nM

O=C(Cc1cc[n+]([O-])cc1)N1CCC(C2c3ncc(Br)cc3CCc3cc(Cl)cc(Br)c32)CC1 (stereo not drawn) [Example 9B]
IC50 ([6]; FPT IC50, Table 1): 3 nM
